According to patent US20080261863A1 (priority 2004, published 2008):

What was measured:
[1] = Measurement of blood pressure in anesthetized rats; assay type: in vivo, rat; conditions: male, Wistar, rat, in vivo; intravenous, rats; read-out: ED50 blood pressure lowering
Experimental: (§1) Blood pressure in rats was measured following administration of either non-PEGylated or PEGylated VPAC2 agonist peptides. Blood pressure was measured as follows: Male Wistar rats were anesthetized with pentobarbital (55 mg/kg, i.p.) and the right carotid artery and jugular vein were cannulated. The carotid cannula was connected to the Biopac System (Harvard Apparatus Co., Harvard, Mass.) for continuous monitoring of blood pressure and heart rate. Vehicle or peptide was administered by injection through the jugular vein catheter.

[2] = system: blood pressure in Male Wistar rats; test: Measurement of blood pressure in anesthetized rats; assay type: in vivo, rat; conditions: FIG. 2, percentage of mean blood pressure of vehicle-treated rats
Experimental: as §1

VPAC1 = target: T1, VPAC1 (Homo sapiens, UniProt P32241); test: Cyclic AMP assay, VPAC1 agonist activity; assay type: cell-based
T1 sequence (P32241 31-457): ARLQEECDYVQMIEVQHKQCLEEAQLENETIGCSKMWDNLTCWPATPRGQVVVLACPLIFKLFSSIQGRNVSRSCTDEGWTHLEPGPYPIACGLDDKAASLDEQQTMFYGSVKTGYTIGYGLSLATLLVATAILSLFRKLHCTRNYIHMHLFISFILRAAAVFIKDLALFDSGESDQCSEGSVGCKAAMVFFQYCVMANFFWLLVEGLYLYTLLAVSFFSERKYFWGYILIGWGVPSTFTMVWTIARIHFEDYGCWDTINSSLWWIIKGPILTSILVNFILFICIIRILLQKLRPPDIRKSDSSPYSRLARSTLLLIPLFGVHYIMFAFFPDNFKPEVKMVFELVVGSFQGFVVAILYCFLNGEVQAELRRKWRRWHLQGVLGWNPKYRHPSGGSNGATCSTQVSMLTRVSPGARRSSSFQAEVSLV

VPAC2 receptor = target: T2, VPAC2 receptor (Homo sapiens, UniProt P41587); test: Cyclic AMP SPA in CHO cells expressing VPAC2; assay type: cell-based; conditions: cAMP in cells overexpressing the VPAC2 receptor
T2 construct: expressed in transfected cells; host or cells: CHO cells under hygromycin and Geneticin selection
T2 sequence (P41587 24-438): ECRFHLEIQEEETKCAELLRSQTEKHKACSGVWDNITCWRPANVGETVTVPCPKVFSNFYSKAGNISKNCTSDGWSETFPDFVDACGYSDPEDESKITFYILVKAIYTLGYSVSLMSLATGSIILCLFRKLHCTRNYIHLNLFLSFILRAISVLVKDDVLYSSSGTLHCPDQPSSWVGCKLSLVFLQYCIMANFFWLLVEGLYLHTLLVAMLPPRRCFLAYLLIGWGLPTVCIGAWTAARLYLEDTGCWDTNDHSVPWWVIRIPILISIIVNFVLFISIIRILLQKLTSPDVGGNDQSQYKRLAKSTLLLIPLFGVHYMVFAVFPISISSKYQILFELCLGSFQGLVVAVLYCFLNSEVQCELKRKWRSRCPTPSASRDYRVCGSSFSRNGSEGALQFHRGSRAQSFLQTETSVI
Experimental: CHO cells expressing the VPAC2 peptide were plated in 96-well plates at 8×10^4 cells/well and grown at 37° C. for 24 hours in αMEM, nucleosides, glutamine (Gibco/BRL, Rockville, Md.), 5% FBS, 100 μg/mL Pen/Strep, 0.4 mg/mL hygromycin, and 1.5 mg/mL Geneticin (Gibco/BRL). The media was removed and the plates were washed with PBS. The cells were incubated with a peptide (in 10 mM Hepes, 150 mM NaCl, 5 mM KCl, 2.5 mM CaCl2, 1.2 mM KH2PO4, 1.2 mM MgSO4, 25 mM NaHCO3 (pH 7.4) with 1% BSA and 100 μM IBMX) for 15 min. at 37° C. Cyclic AMP in the cell extracts was quantitated using the cAMP SPA direct screening assay system (Amersham Pharmacia Biotech Inc., Piscataway, N.J.,). The amount of cAMP present in the lysates was determined following instructions provided with this kit. The amount of cAMP (in pmol) produced at each concentration of peptide was plotted and analyzed by nonlinear regression using Prizm software to determine the EC50 for each peptide.

## CC[C@H](C)[C@H](NC(=O)[C@H](CO)NC(=O)[C@H](CCC(N)=O)NC(=O)[C@H](CC(C)C)NC(=O)[C@H](Cc1ccc(O)cc1)NC(=O)[C@H](CCCCN)NC(=O)[C@H](CCCCN)NC(=O)[C@H](C)NC(=O)[C@H](C)NC(=O)[C@@H](NC(=O)[C@H](CCC(N)=O)NC(=O)[C@H](CCCCN)NC(=O)[C@H](CCCNC(=N)N)NC(=O)[C@H](CC(C)C)NC(=O)[C@H](CCCNC(=N)N)NC(=O)[C@@H](NC(=O)[C@H](Cc1ccc(O)cc1)NC(=O)[C@H](CCC(N)=O)NC(=O)[C@H](CC(=O)O)NC(=O)[C@@H](NC(=O)[C@H](Cc1ccccc1)NC(=O)[C@@H](NC(=O)[C@H](C)NC(=O)[C@H](CC(=O)O)NC(=O)[C@H](CO)NC(=O)[C@@H](N)Cc1c[nH]cn1)C(C)C)[C@@H](C)O)[C@@H](C)O)C(C)C)C(=O)N[C@@H](CCCCN)C(=O)N[C@@H](CCC(N)=O)C(=O)N[C@@H](CCCCN)C(=O)N[C@@H](CCCNC(=N)N)C(=O)N[C@@H](Cc1ccc(O)cc1)C(=O)N[C@@H](CS)C(=O)O [Peptide P12]
[1]
  ED50: 3 µg/kg
[2]
  effect on blood pressure: significantly lowers blood pressure

## PACAP-27
VPAC1
  VPAC1 agonist activity: potent agonist of both the VPAC1 and VPAC2 receptors
VPAC2 receptor
  VPAC2 receptor agonist activity: potent agonist of both the VPAC1 and VPAC2 receptors
